Measurements as given in patent US4175081A, “5-Substituted thiadiazole ureas” (priority 1977, dated 1979).

Key:
Crabgrass (CG) [1] = test: Pre-emergence herbicide test; format: in vivo, Digitaria sanquinalis; conditions: Digitaria sanguinalis, pre-emergence, 336 h; 8 lb/acre; two weeks after treatment
Outline: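 Crabgrass (Digitaria sanquinalis) was surface seeded in 3' plastic pots of potting soil, covered with screened soil, and watered by sub-irrigation in greenhouse trays. Pots were seeded one day before spraying in a hood with a moving belt and fixed nozzle. Plants stayed in the greenhouse on sub-irrigation, and pre-emergence control was rated visually two weeks after treatment.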

Johnson grass (JG) [2] = test: Pre-emergence herbicide test; format: in vivo, Sorgum helepense; conditions: Sorghum halepense, 336 h, 8 lb/acre, two weeks after treatment
Outline: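 Visual injury or control rating two weeks post-treatment, after pre-emergence spray of 8 or 4 lbs active per acre (38 gal/acre) onto pots sown the previous day. Greenhouse watering by sub-irrigation only.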

Barnyard grass (BG) [3] = test: Pre-emergence herbicide test; format: in vivo; conditions: Echinochloa crus-galli, 336 h, 8 lb/acre, two weeks after treatment
Outline: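 Greenhouse pre-emergence spray test: pots seeded one day before treatment received compound at rates of 8 or 4 lb/acre (38 gal/acre). Visual injury/control scores for Echinochloa crus-galli taken at two weeks, with watering by sub-irrigation only.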

Amaranth pigweed (PW) [4] = test: Pre-emergence herbicide test; format: in vivo, Amaranthus retroflexus; conditions: 336 h, 8 lb/acre, two weeks after treatment
Outline: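 Visual injury or control ratings were made at two weeks on pre-emergence pots, sub-irrigated in the greenhouse. Seeds were sown a day before a hood spray delivering 8 lbs/acre (or 4 lbs/acre) of compound in 38 gallons per acre.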

Turnip (TP) [5] = test: Pre-emergence herbicide test; format: in vivo, Brassica sp.; conditions: Brassica rapa, pre-emergence, 336 h; 8 lb/acre; two weeks after treatment
Outline: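 In this pre-emergence greenhouse test, turnip was seeded on the surface of potting soil in 3' plastic pots, lightly covered with screened soil, and watered from below. One day later the pots were sprayed in a belt-fed spray hood. Watering continued only by sub-irrigation, and percent control was visually scored two weeks after treatment.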

Cotton (CT) [6] = test: Pre-emergence herbicide test; format: in vivo, Gossypium hirsutum var. DPL smooth leaf; conditions: Gossypium hirsutum, 336 h, 8 lb/acre, two weeks after treatment
Outline: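 Visual injury/control ratings were taken at two weeks post-spray. Pots seeded a day earlier received compound pre-emergence at 8 lbs/acre, or 4 lbs/acre, in a 38 gallon/acre spray volume, and were then held in the greenhouse, watered only from below.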

Corn (CN) [7] = test: Pre-emergence herbicide test; format: in vivo; conditions: Zea mays, 336 h, 8 lb/acre, two weeks after treatment
Outline: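 Visual injury/control ratings were made 2 weeks post-spray on corn pots seeded (4 seeds, seed-diameter depth) the day before treatment. Application was a belt-hood spray of 38 gal/acre delivering 8 lbs active per acre, with a 4 lbs/acre rate also formulated. Watering was by sub-irrigation throughout.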

Bean (BN) [8] = test: Pre-emergence herbicide test; format: in vivo, Phaseolus vulgaris var. Black Valentine; conditions: Phaseolus vulgaris, 336 h, 8 lb/acre, two weeks after treatment
Outline: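 Visual injury/control ratings were taken two weeks post-spray on sub-irrigated Phaseolus vulgaris var. Black Valentine. Pots were sown a day before treatment. Pre-emergence spray delivered 8 lbs actual compound per acre (or 4 lbs/acre) at 38 gallons per acre.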

Crabgrass (CG) [9] = test: Post-emergence herbicide test; format: in vivo, Digitaria sanquinalis; conditions: Digitaria sanguinalis, post-emergence, 336 h, two weeks after treatment; for pest or weed control at 8966.8 g/ha: 8 lb/acre
Outline: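 Crabgrass (Digitaria sanquinalis) was surface seeded individually in 3' plastic pots of potting soil, covered with screened soil, and watered by sub-irrigation in greenhouse trays. Planting was staggered so seedlings reached the target stage together. Post-emergence sprays were applied in a hood with a removable belt and fixed nozzle, and control was visually rated two weeks after treatment.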

[10] = system: Yellow foxtail grass (YF); test: Post-emergence herbicide test; format: in vivo, Setaria glauca; conditions: Setaria, 336 h, two weeks after treatment; for pest or weed control at 8966.8 g/ha: 8 lb/acre
Description: (§1) Yellow foxtail grass (YF)--Setaria glauca
(§2) All crop and weed species were planted individually in 3' plastic pots containing potting soil. Four seeds each of corn, cotton, and snapbeans were seeded to a depth equal to the diameter of the seed. All other species were surface seeded and sprinkled with screened soil in an amount sufficient to cover the seed. Immediately after planting, all pots were watered by sub-irrigation in greenhouse trays. Pots for the pre-emergence phase were seeded one day before treatment.
Planting dates for the post-emergence phase were varied so that all seedlings would reach the desired stage of development simultaneously. The proper stage of seedling development for treatment in the post-emergence phase is as follows:
(§3) Compounds were tested at rates of application equivalent to 8 lbs. of actual compound per acre in a spray volume of 38 gallons per acre. Spray hood constants required to deliver the above volume are as follows:
(§4) Formulations for spray applications were prepared in 50 ml volumes with the following three components:
(§5) Formulations for the 4 lbs/acre rate were prepared by adjusting the amount of active ingredient accordingly.
(§6) Spray applications were made in a hood containing a removable belt and fixed spray nozzle. For passage through the spray hood, one pot of each specie (pre-emergence phase) was placed on the rear half of the flat. Treatments were removed to the greenhouse after spraying. Watering during the observation period was done only by sub-irrigation.
(§7) Two weeks after treatment, pre- and post-emergence injury or control was visually rated, and the results were as shown in the following tables. Pre-emergence data are provided in TABLE III and post-emergence data are provided in TABLE IV, for compounds having the formula illustrated in TABLE I. Correspondingly, pre-emergence and post-emergence data, respectively, are set forth in TABLES V AND VI, for compounds having the formula illustrated in TABLE II.

Johnson grass (JG) [11] = test: Post-emergence herbicide test; format: in vivo, Sorgum helepense; conditions: Sorghum halepense, 336 h, two weeks after treatment; for pest or weed control at 8966.8 g/ha: 8 lb/acre
Outline: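 Visual injury or control scores taken 2 weeks after a post-emergence spray of pot-grown plants. Application was 8 lbs/acre (or 4 lbs/acre) in 38 gal/acre. Plants were held in the greenhouse with sub-irrigation only.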

Barnyard grass (BG) [12] = test: Post-emergence herbicide test; format: in vivo; conditions: Echinochloa crus-galli, 336 h, two weeks after treatment; for pest or weed control at 8966.8 g/ha: 8 lb/acre
Outline: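 Greenhouse pot-grown barnyard grass seedlings sprayed post-emergence at 8 lbs active compound per acre (some at 4 lbs/acre) in 38 gallons per acre, then sub-irrigated. Injury or control rated visually two weeks after treatment.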

Amaranth pigweed (PW) [13] = test: Post-emergence herbicide test; format: in vivo, Amaranthus retroflexus; conditions: 336 h, two weeks after treatment; for pest or weed control at 8966.8 g/ha: 8 lb/acre
Outline: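 Visual injury or control ratings were made two weeks after spraying, with greenhouse watering by sub-irrigation only. Treatment was post-emergence, when pigweed seedlings had 1 or 2 true leaves, at 8 lbs active compound per acre (4 lbs/acre formulations also made) in a 38 gallons-per-acre spray volume.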

Turnip (TP) [14] = test: Post-emergence herbicide test; format: in vivo, Brassica sp.; conditions: Brassica rapa, post-emergence, 336 h, two weeks after treatment; for pest or weed control at 8966.8 g/ha: 8 lb/acre
Outline: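 A greenhouse post-emergence herbicide test on turnip. Seeds were sown on the surface of potting soil in 3' plastic pots, lightly covered with screened soil and watered from below. Planting was timed so seedlings had 1 or 2 true leaves above the cotyledons at spraying, done in a hood with a fixed nozzle. Control or injury was scored by eye after two weeks.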

Cotton (CT) [15] = test: Post-emergence herbicide test; format: in vivo, Gossypium hirsutum var. DPL smooth leaf; conditions: Gossypium hirsutum, post-emergence, 336 h, two weeks after treatment; for pest or weed control at 8966.8 g/ha: 8 lb/acre
Outline: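 This greenhouse post-emergence test measured how well spray treatments controlled cotton. Seedlings of Gossypium hirsutum var. DPL smooth leaf, with expanded cotyledons and a first true leaf 1' in length, were sprayed with 50 ml formulations in a belt-fed spray hood. They were then returned to the greenhouse and watered only by sub-irrigation. Injury was scored visually as % control after two weeks.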

Corn (CN) [16] = test: Post-emergence herbicide test; format: in vivo; conditions: Zea mays, 336 h, two weeks after treatment; for pest or weed control at 8966.8 g/ha: 8 lb/acre
Outline: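 Greenhouse seedlings grown in potting soil and sprayed post-emergence at 8 lbs compound/acre (formulations also made for 4 lbs/acre) in 38 gallons/acre spray volume. Watering by sub-irrigation only. Injury or control rated visually two weeks after treatment.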

Bean (BN) [17] = test: Post-emergence herbicide test; format: in vivo, Phaseolus vulgaris var. Black Valentine; conditions: Phaseolus vulgaris, post-emergence, 336 h, two weeks after treatment; for pest or weed control at 8966.8 g/ha: 8 lb/acre
Outline: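 Bean seedlings (Phaseolus vulgaris var. Black Valentine) were grown in potting soil in 3' pots until the primary leaves expanded. They were then sprayed under a hood with a removable belt and fixed nozzle, using 50 ml formulations. Afterward they were returned to the greenhouse and watered only by sub-irrigation. Percent control was judged visually two weeks after treatment.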

[18] = system: Yellow foxtail grass (YF); test: Pre-emergence herbicide test; format: in vivo, Setaria glauca; conditions: Setaria, 336 h, 8 lb/acre, two weeks after treatment
Description: as §1, §2, §3, §4, §5, §6, §7

Compound | pest or weed control at 8966.8 g/ha (Crabgrass (CG) [1]) [%] | pest or weed control at 8966.8 g/ha (Johnson grass (JG) [2]) [%] | pest or weed control at 8966.8 g/ha (Barnyard grass (BG) [3]) [%] | pest or weed control at 8966.8 g/ha (Amaranth pigweed (PW) [4]) [%] | pest or weed control at 8966.8 g/ha (Turnip (TP) [5]) [%] | pest or weed control at 8966.8 g/ha (Cotton (CT) [6]) [%] | pest or weed control at 8966.8 g/ha (Corn (CN) [7]) [%] | pest or weed control at 8966.8 g/ha (Bean (BN) [8]) [%] | pest or weed control at 8966.8 g/ha (Crabgrass (CG) [9]) [%] | pest or weed control at 8966.8 g/ha [10] [%] | pest or weed control at 8966.8 g/ha (Johnson grass (JG) [11]) [%] | pest or weed control at 8966.8 g/ha (Barnyard grass (BG) [12]) [%] | pest or weed control at 8966.8 g/ha (Amaranth pigweed (PW) [13]) [%] | pest or weed control at 8966.8 g/ha (Turnip (TP) [14]) [%] | pest or weed control at 8966.8 g/ha (Cotton (CT) [15]) [%] | pest or weed control at 8966.8 g/ha (Corn (CN) [16]) [%] | pest or weed control at 8966.8 g/ha (Bean (BN) [17]) [%] | pest or weed control at 8966.8 g/ha [18] [%] | other results
CCc1nnc(NC(=O)NC)s1 [Example 3, 1-Methyl-3-[5-Ethyl-2-(1,3,4-Thiadiazolyl)] Urea] | 10 | 20 | 10 | 70 | 70 | 50 | 100 | 90 | 20 | 20 | 20 | 20 | 100 | 100 | 90 | 20 | 60 | – | –
CCCNC(=O)Nc1nnc(C(F)(F)F)s1 [Example 10] | 20 | 20 | 10 | – | 10 | 80 | 50 | 80 | 50 | 20 | 30 | 40 | 100 | 60 | 60 | 40 | 50 | 20 | –
CC(C)NC(=O)Nc1nnc(C(F)(F)F)s1 [Example 11] | 20 | 30 | 10 | – | 10 | 80 | 80 | 30 | 50 | 20 | 30 | 40 | 100 | 60 | 60 | 40 | 50 | 10 | –
CNC(=O)Nc1nnc(C)s1 [Example 18] | 10 | 10 | 20 | 10 | 50 | 30 | 30 | 50 | 20 | 20 | 20 | 20 | 40 | 40 | 50 | 20 | 50 | – | –
C=C(C)CSc1nnc(NC(=O)NC)s1 [Example 49] | – | – | – | – | – | – | – | – | – | – | – | – | – | – | – | – | – | – | pest or weed control at 4483.4 g/ha (Crabgrass (CG) [9]; 4 lb/acre): 80%; pest or weed control at 4483.4 g/ha ([10]; 4 lb/acre): 40%; pest or weed control at 4483.4 g/ha (Johnson grass (JG) [11]; 4 lb/acre): 40%; pest or weed control at 4483.4 g/ha (Barnyard grass (BG) [12]; 4 lb/acre): 40%; pest or weed control at 2241.7 g/ha (Amaranth pigweed (PW) [13]; 2 lb/acre): 100%; pest or weed control at 2241.7 g/ha (Turnip (TP) [14]; 2 lb/acre): 70%; pest or weed control at 4483.4 g/ha (Turnip (TP) [14]; 4 lb/acre): 90%; pest or weed control at 4483.4 g/ha (Cotton (CT) [15]; 4 lb/acre): 100%; pest or weed control at 4483.4 g/ha (Corn (CN) [16]; 4 lb/acre): 40%; pest or weed control at 4483.4 g/ha (Bean (BN) [17]; 4 lb/acre): 50%
CNC(=O)Nc1nnc(-c2cccc(Cl)c2)s1 [Example 72] | 0 | 0 | 0 | – | 0 | 80 | 30 | 100 | 30 | 30 | 20 | 40 | – | 40 | 30 | 0 | 20 | – | –
